Tests used:
[1] = tested on: ID8 Trp53−/− Brca2−/− cells; experiment: TAX2 efficacy alone or in sequential combination with olaparib, metastatic peritoneal carcinomatosis model; format: in vivo, C57BL/6 J mice; settings: for Mouse survival, prolonged olaparib design: from day 7 post inoculation olaparib 50 mg/kg per os daily 5 weeks, then TAX2 30 mg/kg IV three times a week, n = 7–11 per group, p = 0.0014 post discontinuation, median survival p = 0.0205; for Animal survival versus controls (Kaplan–Meier): same regimens as Fig. 6b, Gehan–Breslow–Wilcoxon test, TAX2 p = 0.0347 vs controls; for Median survival: treatment from day after IP inoculation, TAX2 30 mg/kg IV 3 times weekly for 6 weeks or olaparib 50 mg/kg per os daily for 2 weeks, n = 9–19 per group, end point 20% body weight gain
Experimental: Eight-week-old C57BL/6 J mice were IP injected with 2 × 10^6 ID8 Trp53^−/− Brca2^−/− cells in 300 µL HBSS. For mouse treatments, TAX2 peptide was IV injected at 30 to 100 mg/kg, three times a week; olaparib (catalog no. M1664, AbMole, TX, USA) was given per os at a 50 mg/kg BW dose, daily. Two different sequential treatments were performed. In the first one, mice were treated one day after tumor inoculation with olaparib for 2 weeks followed by 4 weeks of TAX2. In the second one, mice were randomized 7 days after tumor inoculation and first treated with olaparib daily for 5 weeks or an identical volume of olaparib vehicle composed of 10% (2-hydroxypropyl)-β-cyclodextrin and 10% DMSO in D-PBS buffer. Mice were then sequentially treated with TAX2 for a maximum of 3 weeks. […] Mice were weighed twice or thrice a week and abdominal distension was measured using a digital caliper. Tumor burden was monitored using body weight change as a measure of ascitic fluid buildup post inoculation as previously described in the same model. Gain of 20% body weight was considered as the end point for survival analysis. In this orthotopic model, it is impossible to determine whether the absence of tumor uptake is treatment related or not. Therefore, mice showing no signs of tumor development (carcinosis, nodules, or ascites) at the time of euthanasia were excluded to avoid misinterpretation of the results.
Two-tailed Pearson and Spearman tests were used to assess the correlation between two linear or monotonic variables, respectively, and Mann–Whitney test was used where appropriate. Mouse survival curves were generated using Kaplan–Meier analysis with Gehan–Breslow–Wilcoxon tests as previously reported for ID8 syngeneic model. All graphs and statistics were generated with Prism (GraphPad Software, La Jolla, CA) using the statistical tests and sample sizes indicated in the figure legends.

[2] = tested on: ID8 Trp53−/− Brca2−/− ovarian carcinoma cells; settings: mouse, in vivo, 10 mg/kg
Experimental: After 5 (IP model) or 10 (SC model) weeks of tumor growth, mice received an IV bolus dose of TAX2-Cy5 at 10 mg/kg BW in injectable saline solution. After in vivo imaging and mouse euthanasia, subcutaneous tumor or peritoneal tumor mass and metastatic nodules, were collected and imaged with instrument sensitivity set to “Normal” using the same protocol as described above for healthy mice. TAX2-Cy5 concentration was calculated as described above.

[3] = Toxicology and safety pharmacology studies in rats; settings: Sprague–Dawley rats, data not shown
[4] = Toxicology and safety pharmacology studies in dogs; settings: beagle dogs, data not shown

Compound: O=C(c1cc(Cc2n[nH]c(=O)c3ccccc23)ccc1F)N1CCN(C(=O)C2CC2)CC1 [olaparib]
- Mouse survival, prolonged olaparib design [1]: increased mouse survival
- Mice exhibiting no response to olaparib (tumor burden) ([1]; olaparib 50 mg/kg per os daily for 2 weeks, n = 20, tumor burden by body weight change): 75%
- Median survival of olaparib-resistant mice ([1]; olaparib alone 50 mg/kg per os daily for 2 weeks, unresponsive mice n = 14, control 38 days): 41 days
- Animal survival versus controls (Kaplan–Meier) [1]: failed to improve animal survival
- Median survival ([1]; control 38 days): 43 days

Compound: CC(C)C[C@@H]1NC(=O)[C@H](CC(C)C)NC(=O)[C@H](CCC(N)=O)NC(=O)[C@H](CO)NC(=O)[C@H](C(C)C)NC(=O)[C@H](CCC(=O)O)NC(=O)[C@@H](N)CSSC[C@@H](C(=O)O)NC(=O)[C@H](C)NC(=O)[C@H](CC(=O)O)NC(=O)CNC(=O)[C@H](CCCCN)NC1=O [TAX2]
- Mice surviving for the duration of the experimental protocol (weak peritoneal carcinomatosis) ([1]; TAX2 30 mg/kg IV 3 times weekly for 6 weeks): 1 out of 9
- Mouse survival, prolonged olaparib design [1]: further improved survival
- Animal survival versus controls (Kaplan–Meier) [1]: modestly but significantly extended the survival rate
- Median survival ([1]; control 38 days): 44 days
- Localization at tumor sites [2]: localization of TAX2 at tumor sites
- Tolerability after systemic administration [3]: very well tolerated
- Tolerability after systemic administration [4]: very well tolerated

Reference: PMC11323699, “The CD47/TSP-1 axis: a promising avenue for ovarian cancer treatment and biomarker research” (Molecular Cancer, 2024)
